# Values of other authors in publication PMC10975502 (Methods in molecular biology (Clifton, N.J.), 2022).
# Details: result in words
substance,measurement,value
cyclo(FfΦRrRrQ) [CPP12],activity in cytosolic delivery,high activity
